Among the data in ChEMBL document CHEMBL3045290, “Novel salicylamide derivatives incorporating neonicotinoid pharmacophore: design, synthesis, characterization, and biological evaluation” (2013) are mortality values, retold here.

What all share (type): functional
Test [1] deals with Helicoverpa armigera. Kind of test: Insecticidal activity against Helicoverpa armigera fed on artificial diet containing compound assessed as mortality at 500 ug/ml after 96 hr.
Test [2] deals with Plutella xylostella. Kind of test: Insecticidal activity against Plutella xylostella (diamondback moth) fed on artificial diet containing compound assessed as mortality at 31.25 ug/ml after 96 hr.
Test [3] concerns Plutella xylostella. Kind of test: Insecticidal activity against Plutella xylostella (diamondback moth) fed on artificial diet containing compound assessed as mortality at 125 ug/ml after 96 hr.
Test [4] concerns Plutella xylostella. Kind of test: Insecticidal activity against Plutella xylostella (diamondback moth) fed on artificial diet containing compound assessed as mortality at 62.5 ug/ml after 96 hr.
Test [5] concerns Helicoverpa armigera. Kind of test: Insecticidal activity against Helicoverpa armigera fed on artificial diet containing compound assessed as mortality at 125 ug/ml after 96 hr.
The test system of test [6] is Helicoverpa armigera. Kind of test: Insecticidal activity against Helicoverpa armigera fed on artificial diet containing compound assessed as mortality at 250 ug/ml after 96 hr.
The subject of test [7] is Helicoverpa armigera. Kind of test: Insecticidal activity against Helicoverpa armigera fed on artificial diet containing compound assessed as mortality at 1000 ug/ml after 96 hr.
For test [8], the system named is Plutella xylostella. Kind of test: Insecticidal activity against Plutella xylostella (diamondback moth) fed on artificial diet containing compound assessed as mortality at 250 ug/ml after 96 hr.
Test [9] deals with Helicoverpa armigera. Kind of test: Insecticidal activity against Helicoverpa armigera fed on artificial diet containing compound assessed as mortality at 62.5 ug/ml after 96 hr.
The subject of test [10] is Helicoverpa armigera. Kind of test: Insecticidal activity against Helicoverpa armigera fed on artificial diet containing compound assessed as mortality at 31.25 ug/ml after 96 hr.
Test [11] relates to Plutella xylostella. Kind of test: Insecticidal activity against Plutella xylostella (diamondback moth) fed on artificial diet containing compound assessed as mortality at 1000 ug/ml after 96 hr.
Test [12] has as its system Plutella xylostella. Kind of test: Insecticidal activity against Plutella xylostella (diamondback moth) fed on artificial diet containing compound assessed as mortality at 500 ug/ml after 96 hr.

Turning to `O=C(c1ccccc1OCc1ccc(Cl)nc1)N1CCCCC1`, the mortality at 500 µg/mL in [1] came out at 0%; in test [12] it was 41%. In addition, the mortality at 31.25 µg/mL in test [2] and in test [10] was 0% in each case. Further, the mortality at 125 µg/mL in [3] and in [5] was 0% in each case. The mortality at 62.5 µg/mL in [4] and in [9] was 0% each time. In addition, the mortality at 250 µg/mL in [6] and in test [8] was 0% throughout. Besides, the mortality at 1000 µg/mL in test [7] and in test [11] was 41% throughout.

Consider `O=C(NC1CCCCC1)c1ccccc1OCc1ccc(Cl)nc1`, for which the mortality at 500 µg/mL in test [1] and in test [12] was 0% in each case. Moreover, the mortality at 31.25 µg/mL in test [2] and in [10] was 0% in each case. In addition, the mortality at 125 µg/mL in test [3] and in [5] was 0% each time. The mortality at 62.5 µg/mL in [4] and in test [9] was 0% in each case. The mortality at 250 µg/mL in [6] and in test [8] was 0% in each case. The mortality at 1000 µg/mL in test [7] is 0%; in [11], 41%.

On to `O=C(Nc1ccc(C(F)(F)F)cc1)c1ccccc1OCc1ccc(Cl)nc1`, for which the mortality at 500 µg/mL in test [1] and in test [12] was 100% in each case. Moreover, the mortality at 31.25 µg/mL in test [2] was found to be 81%; in test [10], 61%. Besides, the mortality at 125 µg/mL in test [3] and in test [5] was 100% throughout. Besides, the mortality at 62.5 µg/mL in [4] and in test [9] was 100% each time. Moreover, the mortality at 250 µg/mL in test [6] and in test [8] was 100% each time. For the same molecule, the mortality at 1000 µg/mL in test [7] and in test [11] was 100% in each case.

`O=C(Nc1ccccc1)c1ccccc1OCc1ccc(Cl)nc1`: the mortality at 500 µg/mL in test [1] stood at 0%; in test [12], 81%. Besides, the mortality at 31.25 µg/mL in test [2] and in test [10] was 0% in each case. Also, the mortality at 125 µg/mL in test [3] is 41%; in [5], 0%. Besides, the mortality at 62.5 µg/mL in test [4] and in test [9] was 0% throughout. Further, the mortality at 250 µg/mL in [6] is 0%; in test [8], 41%. The mortality at 1000 µg/mL in test [7] was 0%; in test [11], 81%.

In the case of `O=C(Nc1ccc(I)cc1)c1ccccc1OCc1ccc(Cl)nc1`, the mortality at 500 µg/mL was found to be 0% in [1] and 100% in test [12]. Further, the mortality at 31.25 µg/mL in test [2] and in test [10] was 0% throughout. Besides, the mortality at 125 µg/mL in test [3] is 41%; in [5], 0%. Moreover, the mortality at 62.5 µg/mL in [4] and in test [9] was 0% each time. Further, the mortality at 250 µg/mL in [6] was 0%; in test [8], 100%. For the same molecule, the mortality at 1000 µg/mL was 0% in [7] and 100% in test [11].

For `Cc1ccccc1NC(=O)c1ccccc1OCc1ccc(Cl)nc1`, the mortality at 500 µg/mL in [1] and in test [12] was 0% each time. Besides, the mortality at 31.25 µg/mL in [2] and in test [10] was 0% each time. The mortality at 125 µg/mL in test [3] and in [5] was 0% in each case. Further, the mortality at 62.5 µg/mL in [4] and in test [9] was 0% throughout. In addition, the mortality at 250 µg/mL in test [6] and in test [8] was 0% throughout. The mortality at 1000 µg/mL in test [7] and in test [11] was 0% in each case.

With `O=C(Nc1ccc(Br)cc1)c1ccccc1OCc1ccc(Cl)nc1`, the mortality at 500 µg/mL in test [1] and in test [12] was 100% each time. In addition, the results for the mortality at 31.25 µg/mL in [2] and in test [10] were 41% and 61%, respectively. Besides, the mortality at 125 µg/mL in [3] is 100%; in [5], 81%. For the same molecule, the mortality at 62.5 µg/mL in [4] turned out to be 100%; in test [9] it was 61%. Also, the results for the mortality at 250 µg/mL in test [6] and in test [8] were 81% and 100%, respectively. The mortality at 1000 µg/mL in [7] and in test [11] was 100% in each case.

With `CC(C)c1ccc(NC(=O)c2ccccc2OCc2ccc(Cl)nc2)cc1`, the mortality at 500 µg/mL in [1] came to 81%; in test [12], 100%. Moreover, the mortality at 31.25 µg/mL stood at 0% in [2] and 41% in test [10]. In addition, the mortality at 125 µg/mL in test [3] came out at 41%; in test [5] it was 61%. For the same molecule, the mortality at 62.5 µg/mL in test [4] and in test [9] was 41% throughout. Moreover, the mortality at 250 µg/mL in [6] is 61%; in test [8], 100%. In addition, the mortality at 1000 µg/mL in test [7] and in test [11] was 100% each time.

For `Cc1cc(Cl)ccc1NC(=O)c1ccccc1OCc1ccc(Cl)nc1`, the mortality at 500 µg/mL in [1] and in test [12] was 41% throughout. The mortality at 31.25 µg/mL in test [2] and in [10] was 0% in each case. Besides, the figures for the mortality at 125 µg/mL in test [3] and in test [5] were 41% and 0%, respectively. Besides, the mortality at 62.5 µg/mL in [4] and in [9] was 0% in each case. Also, the mortality at 250 µg/mL in test [6] and in test [8] was 41% in each case. Moreover, the mortality at 1000 µg/mL in [7] and in test [11] was 100% each time.

Take `CCN(CC)C(=O)c1ccccc1OCc1ccc(Cl)nc1`: the mortality at 500 µg/mL in [1] and in [12] was 0% in each case. The mortality at 31.25 µg/mL in test [2] and in test [10] was 0% throughout. In addition, the mortality at 125 µg/mL in [3] and in test [5] was 0% in each case. Further, the mortality at 62.5 µg/mL in [4] and in [9] was 0% each time. For the same molecule, the mortality at 250 µg/mL in test [6] and in [8] was 0% throughout. Besides, the mortality at 1000 µg/mL in test [7] and in test [11] was 41% in each case.

Take `O=C(Nc1ccc(F)cc1)c1ccccc1OCc1ccc(Cl)nc1`: the mortality at 500 µg/mL in test [1] turned out to be 41%; in test [12] it was 81%. In addition, the mortality at 31.25 µg/mL in test [2] and in test [10] was 0% throughout. For the same molecule, the mortality at 125 µg/mL in test [3] and in [5] was 41% each time. Further, the mortality at 62.5 µg/mL in [4] and in test [9] was 0% throughout. For the same molecule, the mortality at 250 µg/mL in test [6] and in test [8] was 41% each time. For the same molecule, the mortality at 1000 µg/mL in test [7] came out at 41%; in test [11], 100%.

As for `O=C(Nc1cc(Cl)c(OC(F)(F)C(F)F)c(Cl)c1)c1ccccc1OCc1ccc(Cl)nc1`, the mortality at 500 µg/mL in [1] was found to be 41%; in [12], 100%. Moreover, the mortality at 31.25 µg/mL came to 41% in [2] and 0% in test [10]. For the same molecule, the mortality at 125 µg/mL in [3] worked out at 100%; in test [5], 0%. Further, the results for the mortality at 62.5 µg/mL in test [4] and in test [9] were 41% and 0%, respectively. Besides, the mortality at 250 µg/mL worked out at 41% in [6] and 100% in [8]. For the same molecule, the mortality at 1000 µg/mL in test [7] and in test [11] was 100% in each case.

Consider `CC(C)N(C(=O)c1ccccc1OCc1ccc(Cl)nc1)C(C)C`, for which the mortality at 500 µg/mL in test [1] and in [12] was 100% in each case. For the same molecule, the mortality at 31.25 µg/mL in test [2] and in [10] was 0% in each case. The mortality at 125 µg/mL in test [3] and in [5] was 41% each time. Besides, the mortality at 62.5 µg/mL in test [4] and in [9] was 0% throughout. Besides, the mortality at 250 µg/mL amounted to 41% in test [6] and 100% in test [8]. Moreover, the mortality at 1000 µg/mL in test [7] and in test [11] was 100% each time.

Consider `COc1ccc(NC(=O)c2ccccc2OCc2ccc(Cl)nc2)cc1`, for which the mortality at 500 µg/mL in test [1] was determined as 0%; in test [12] it was 100%. In addition, the mortality at 31.25 µg/mL in test [2] is 41%; in test [10], 0%. Further, the mortality at 125 µg/mL came out at 100% in test [3] and 0% in test [5]. Moreover, the mortality at 62.5 µg/mL in [4] was found to be 81%; in test [9], 0%. In addition, the values for the mortality at 250 µg/mL in test [6] and in test [8] were 0% and 100%, respectively. Besides, the mortality at 1000 µg/mL in [7] amounted to 0%; in test [11] it was 100%.

Regarding `O=C(Nc1ccccn1)c1ccccc1OCc1ccc(Cl)nc1`, the mortality at 500 µg/mL in [1] is 0%; in test [12], 41%. Further, the mortality at 31.25 µg/mL in [2] and in [10] was 0% each time. The mortality at 125 µg/mL in test [3] and in [5] was 0% throughout. In addition, the mortality at 62.5 µg/mL in [4] and in [9] was 0% throughout. The mortality at 250 µg/mL in [6] stood at 0%; in test [8], 41%. Further, the results for the mortality at 1000 µg/mL in test [7] and in test [11] were 0% and 100%, respectively.
